# From patent US5352587A, “Compositions and methods for the synthesis of natriuretic protein receptor B and methods of use” (Genentech, Inc., priority 1991, dated 1994)
# Ends that are not written are not given here.
# What was measured:
# soluble NPRB = assay: Binding to soluble NPRB extracellular domain (1-433) in concentrated conditioned medium; parameters: species or system human
# Protocol: Soluble extracellular domain of NPRB was engineered by introducing a translation termination codon at position 434 to produce the 1-433 fragment of the NPRB sequence illustrated in FIG. 1. A stable cell line was developed in 293 cells as described for 293NPRBDKC, and clones were screened by binding of ^125 lBNP to receptor in condition medium. Control 293 cells or the stable cell line 293BCF.15 (NPRB cell free) were plated 24 hours prior to the addition of serum free conditioned medium. Medium was left on the cells for 72 hours then collected for analysis of the […] synthesized. The media was vacuum filtered through a […] filter (Millipore Corp) then concentrated 8-fold by ultrafiltration on an Amicon Corp centriprep YM30 membrane. A 0.5 ml sample of concentrated conditioned media was incubated for one hour in the presence of 0.25 mCi of ^125 l-pBNP(26) (2462 Ci/mmole) with (background binding) or without (total binding) 1.2 mM pBNP(26). A 1.0 ml sample of activated charcoal solution (Fuller et al. J. Biol. Chem. 264, 14179-14184 [1989]) was added to absorb unbound label and recovered by centrifugation. The supernatant (1.4 ml) was removed for determination of ^125 l-pBNP bound to receptor by gamma counting. Specific binding was calculated from the difference between total binding minus background binding. […]
# [1] = target: T1, NPRB lacking its kinase and guanylyl cyclase domains (BDKC) (Homo sapiens, UniProt P20594); assay: Scatchard analysis of binding to 293 cells expressing NPRB less the kinase and cyclase domains (BDKC); conditions: two hours at room temperature (21° C.), LIGAND program, read-out: dissociation constant (Kd)
# T1 construct: expressed in transfected cells
# T1 sequence (P20594 23-501): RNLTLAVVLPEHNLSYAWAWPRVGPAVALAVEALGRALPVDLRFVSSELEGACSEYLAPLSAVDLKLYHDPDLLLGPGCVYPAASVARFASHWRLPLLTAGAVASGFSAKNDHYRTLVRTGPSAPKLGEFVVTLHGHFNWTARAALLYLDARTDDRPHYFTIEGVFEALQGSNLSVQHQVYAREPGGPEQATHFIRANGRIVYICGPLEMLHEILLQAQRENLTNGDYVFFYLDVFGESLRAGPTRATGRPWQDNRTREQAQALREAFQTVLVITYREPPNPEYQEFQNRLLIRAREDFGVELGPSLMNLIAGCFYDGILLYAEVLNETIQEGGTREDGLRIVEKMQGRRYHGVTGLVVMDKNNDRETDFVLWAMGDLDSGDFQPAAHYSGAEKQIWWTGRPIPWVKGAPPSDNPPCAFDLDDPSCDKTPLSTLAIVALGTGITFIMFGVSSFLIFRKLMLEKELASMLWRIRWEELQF
# From the text: Scatchard analysis was used to determine the binding affinities of the natriuretic peptides for NPRB. An expression vector using pRK was constructed such that the NPRB lacked its kinase and guanylyl cyclase domains. This mutation was effected by introduction of a termination codon at condo 480 of the mature NPRB protein. A recombinant cell line expressing NPRB less the kinase and cyclase domains (BDKC) was developed by calcium phosphate transfection of 293 cells as described above. These stable cell lines were screened for expression of BDKC by binding of porcine BNP which contained 26 amino acids (^125 l-pBNP[26]). […] Binding was allowed to proceed to equilibrium by incubation for two hours at room temperature (21° C.), the bound ^125 l-pBNP(26) was separated from unbound by centrifugation for 7 minutes at 4° C. The supernatant was aspirated and the cell pellet was counted in a gamma counter for ^125 l quantitation. Background binding was subtracted from total binding to give specific binding and the specific binding vs. dose of ^125 l-pBNA data was analyzed by the LIGAND program of Munson and Rodbard (Analytical Biochemistry 107, 220-239 [1980]). The results shown are in FIG. 5.
# membrane GC = conditions: literature refs 14, 15; cited from earlier work
# [2] = tested on: active site of protein kinases; conditions: literature refs 12, 13; cited from earlier work
# [3] = target: 130 kDa ANP receptor-GC from adrenal glomerulosa; conditions: literature refs 10, 11; cited from earlier work
molecule,measurement,setting,value
"^125 l-pBNP(26): porcine BNP which contained 26 amino acids, ^125 l labelled (DSGCFGRRLDRIGSLSGLGCNVLRRY; ends and bridges not checked; also: 125I label, position not given here; UniProt P07634 106-131, looked up)",Specific binding to soluble NPRB,"soluble NPRB; 0.25 mCi ^125 l-pBNP(26), one hour, 8-fold concentrated conditioned medium","31,837 cpm"
same,Specific binding due to the recombinant soluble receptor protein (difference from control 293 cells),soluble NPRB; difference between soluble NPRB and control 293 cells,"29,177 cpm"
same,Kd,[1],0.0667 nM
Nc1ncnc2c1ncn2[C@@H]1O[C@H](COP(=O)(O)OP(=O)(O)OP(=O)(O)O)[C@@H](O)[C@H]1O [ATP],effect on Vmax of membrane GC in response to ANP stimulation,membrane GC,increasing the Vmax of membrane GC in response to ANP stimulation
N=C(N)NC(=O)c1nc(Cl)c(N)nc1N [amiloride],inhibition of ATP binding to the active site of protein kinases,[2],competitive inhibitor of ATP binding to the active site of protein kinases
same,effect on receptor conformation and Kd for ANP,[3],change in receptor conformation and a lowering of the Kd for ANP
